{"source": "patent US10357486B2", "about": "“Treatment of cognitive impairment with PDE4 inhibitor” (Universiteit Maastricht, priority 2013, dated 2019)", "format_in_all_cases": "in vivo, human", "key": {"[1]": {"system": "healthy adults (18 to 35 years)", "experiment": "Verbal Learning Task (VLT) in healthy adults, 18 to 35 years", "from_the_text": "The objective of this proof-of-concept study was to validate Roflumilast as cognitive enhancer using a translational behavior (i.e., cognitive testing)—EEG (i.e., brain electrical activity) approach.\nVerbal Learning Task Analysis_The study utilized Verbal Learning Task (VLT) to analyze the increased number of words remembered following roflumilast administration. The VLT consisted of displaying 30 monosyllable words on a computer screen for a period of 60 seconds. Immediately after the presentation of the words on the computer screen subjects were asked to report as many words as they could recall by memory. This process (presentation and recall) was repeated further two times. In addition, 45 min and 24 h after the last presentation, subjects were again asked to report as many words as they could recall by memory. The set of three recall trials was conducted 60 minutes following administration of the roflumilast therapy.\nStatistical Data Analyses Human data was analyzed using IBM SPSS Statistics version 20. General Linear Models for repeated measures were applied with the placebo condition included as contrast. Statistical outcomes for Tests of Within-Subjects Effects and\nTests of Within-Subjects Contrasts were regarded for immediate and delayed free recall scores and for the summed immediate recall score (i.e. immediate 1+immediate 2+immediate 3). The factor Treatment (4 levels; placebo, roflumilast 100 mcg, roflumilast 300 mcg and roflumilast 1000 mcg) was included as a within subjects factor. For the analysis of the EEG data, the factor Channel (5 levels; Fz, FCz, Cz, CPz, and Pz) was included as a second within subjects factor. Peak and latency values of three memory related ERP's were analysed; i.e. P300, N400 and P600. In case of significant findings (p<0.05) post-hoc t-tests were performed to reveal which of the five midline electrodes contributed to the effect."}, "[2]": {"system": "60 to 80 years old subjects (Impaired Elderly and Healthy Elderly)", "experiment": "Verbal Learning Task (VLT) in 60 to 80 years old subjects, interim analysis", "method": "(§1) The study is conducted according to a double-blind, placebo-controlled, four-period cross-over design. Forty healthy subjects, both male and female within an age range of 60 to 80 years are planned to be included in the study in 2 groups: 1) 20 subjects with a memory performance between 1-2 Standard Deviation below the average for their age, gender, and educated level (Impaired Elderly) and 2) 20 subjects with age (±3 years), gender, and educational level matched (in order to speed up the study matching was stopped after the interim analysis) with an average memory performance between 0.5 Standard Deviation below and 0.5 Standard Deviation above from normative values (Healthy Elderly). Classification in terms of impaired or healthy elderly will be determined by a one-off testing of memory performance using the Rey Verbal Learning Task (Rey A; L'examen psychologique dans les cas d'encephalopathy traumatique 1958 Paris; Presses Universitaire de France; or Van der Elst et al; J Int Neuropsychol Soc 2005, 11 (3), pp 290-302) according to fully standardized procedures as applied in The Maastricht Aging Study (Jolles et al; Maastricht Aging Study; determinants of cognitive aging; Maastricht, The Netherlands, Neuropsych Publishers 1995). Normative data for each individual subject will be derived also from the Maastricht Aging Study using the regression formula as described by Van der Elst et al (Van der Elst et al; J Int Neuropsychol Soc 2005, 11 (3), pp 290-302).\nAll subjects within their corresponding groups (either Healthy Elderly n=20 or Impaired Elderly n=20) will be randomized in a double blind fashion to 1 of 4 treatment sequences, each sequence consisting of the following periods: A) Placebo+placebo; B) Roflumilast 100 mcg+placebo; C) Roflumilast […]+placebo and D) Roflumilast 1000 mcg (500+500 mcg) according to a computer-generated allocation schedule in a cross-over design. Between each of the four treatment sequences there will be a 12 days washout period.\nCognitive status will be quantified using computerized cognitive battery, a validated tool for measuring the cognitive impairment in humans. The battery will consist of: VLT, Spatial Memory Task (SMT), Stroop Task, and Bond-Lader Visual Analogue Scales (BL-VAS).\nVerbal learning task (VLT) The Rey VLT as modified by Riedel and colleagues (Riedel, Klaasen et al, Psychopharmacology (Berlin) 1999 Vol 141(4) pp 362-369) is used. This modified VLT maximizes the possibility of measuring enhancement rather than only impairment, by means of prolonging the list. The test consists of a list of 30 monosyllabic words (18 nouns and 12 adjectives). The words are shown on a computer screen for 1 second. Three trials with the same item sequence are presented. Each trial ends with a free recall of the words (immediate recall). Forty-five minutes after the first exposure, the subject is asked to recall as many words as possible (delayed recall). […] The words are shown on a computer screen for 2 seconds and subjects are asked to rate whether they were presented in the learning trial by a “yes/no” response. The inter-word interval is 2 seconds. 24 Hours after the immediate recall, subjects will return to the lab for a second delayed recall and recognition. The remaining 15 old words and 15 new words will be presented during recognition. EEG will be recorded during the immediate recall and the first recognition test on the test day. […]"}, "[3]": {"system": "60 to 80 years old subjects (Impaired Elderly and Healthy Elderly)", "experiment": "Bond-Lader Visual Analogue Scales (BL-VAS) in 60 to 80 years old subjects, interim analysis", "settings": "low dose (100 mcg); at 45 min", "method": "as §1, with “Normative data for each individual subject will be derived also from the Maastricht Aging Study using the regression formula as described by Van der Elst et al (Van der Elst et al; J Int Neuropsychol Soc 2005, 11 (3), pp 290-302).” left out"}}, "data": [{"smiles": "O=C(Nc1c(Cl)cncc1Cl)c1ccc(OC(F)F)c(OCC2CC2)c1", "note": "[roflumilast, N-(3,5-dichloropyridin-4-yl)-3-cyclopropylmethoxy-4-difluoromethoxybenzamide]", "values": [{"measurement": "placebo-corrected fold-improvement in VLT", "setting": "[1]; 100 mcg single dose, healthy volunteer study, 3rd trial", "value": 1.12}, {"measurement": "number of words on the 3rd trial of VLT", "setting": "[1]; 100 mcg single dose, young volunteers, placebo 21.25", "value": 23.7, "unit": "words"}, {"measurement": "improvement in number of correct words recalled in VLT (average)", "setting": "[1]; single oral dose of 100 mcg, after the third trial", "value": 2.5, "unit": "words"}, {"measurement": "number of words on the 3rd trial of VLT", "setting": "[2]; 100 mcg single dose, elderly subjects, placebo 8.81", "value": 10.28, "unit": "words"}, {"measurement": "placebo-corrected fold-improvement in VLT", "setting": "[2]; 100 mcg single dose, interim data of the elderly study", "value": 1.16}, {"measurement": "increase in the number of correct words recalled after 45 min delayed recall trial of VLT, compared to placebo", "setting": "[2]; 100 mcg single dose, pooled interim analysis", "value": 1.7, "unit": "words"}, {"measurement": "increase in the number of correct words immediately recalled after the 3rd trial of VLT, compared to placebo", "setting": "[2]; 100 mcg single dose, pooled interim analysis, 9 Impaired and 4 Healthy Elderly", "value": 1.5, "unit": "words"}, {"measurement": "increase in the number of correct words recalled after 45 min delayed recall trial of VLT, compared to placebo", "setting": "[2]; 1000 mcg single dose, pooled interim analysis", "value": 1.6, "unit": "words"}, {"measurement": "(subjective) alertness in comparison with placebo, based on BL-VAS scores", "setting": "[3]", "value": "significantly higher"}]}]}
